# What was measured:
# [1] = DPPH radical scavenging assay; conditions: n in brackets
# Experimental: The direct antioxidant effects of compounds 3 were investigated by studying their radical-scavenging effect on the 2,2-diphenyl-1-picrylhydrazyl free radical (DPPH^•). Thus, a 100 μL volume of a methanol solution of each compound was added to 200 μL of 100 μM methanolic DPPH^•, and the solution was kept in the dark at 37 °C for 30 min in a 96-well microliter plate. After this incubation, the absorption at 490 nm of each solution was measured with a microplate reader in order to quantitate its decrease. A blank reading was also taken to calculate the amount of remaining DPPH^•. The radical-scavenging activity exerted by compounds 3 was determined by comparison with a 10 μL of MeOH-treated blank group. Ascorbic acid, a well-known antioxidant acting as a radical scavenger, was used as reference. All samples were analyzed in triplicate. Percent inhibition of the DPPH^• radical was calculated using the equation shown below, where AbsCtrl is the absorbance of the blank group and Abss is the absorbance of the samples containing compounds 3. For each compound showing a percentage of inhibition above 60%, the IC50 value was determined using a dose–response curve obtained from measurements corresponding to at least six concentrations. %Scavenger=AbsCtrl−AbsS/AbsCtrl×100
# The radical scavenging activity of all compounds was first studied by the DPPH assay, which measures the ability of antioxidant compounds to donate a hydrogen atom to the violet 2,2-diphenyl-1-picrylhydrazyl radical and transform it into a nonradical species. Thus, it is generally considered to belong to the hydrogen atom transfer (HAT) category of methods for measurement of antioxidant activity.
# [2] = Ferric reducing antioxidant power (FRAP) assay; set-up: key to FRAP TEAC: trolox equivalents (TEAC), relative to trolox; conditions: for FRAP nmol Fe2+ at 30 µM: 30 µM compound, n in brackets; for FRAP TEAC: 30 µM, relative to trolox
# Experimental: A ferric reducing antioxidant power (FRAP) kit assay purchased from Sigma-Aldrich (Madrid, Spain) was employed for the experiments. The antioxidant solutions, FRAP assay buffer solution, FeCl3 solution, and FRAP probe solution were kept in ice during the preparation of the plate. A calibration standard curve was prepared by using the 2 mM ferrous standard solution provided in the FRAP kit assay. Appropriate aliquots of this solution were taken and diluted up to a 200 μL final volume with FRAP buffer. The final ferrous concentrations measured in the well were: 0, 20, 40, 60, 80, and 100 μM. Each concentration value was prepared and measured by triplicate. Stock solutions of compounds 3, as well as reference compounds trolox and ferulic acid, were freshly prepared in 95% ethanol at […]. Aliquots of 10 μL of compounds 3 and the reference compounds were mixed with 19 μL FeCl3 solution and 19 μL FRAP probe solution, and then completed to a final volume of 200 μL with FRAP assay buffer solution. The final concentration of antioxidants and references was 30 μM. Compounds 3, reference compounds, as well as the corresponding blank solutions (one for each compound to be assayed, avoiding the chromogenic FRAP probe), and positive control were thoroughly mixed in vortex for 1–2 min with the reaction chromogenic media, and then were incubated under darkness at 37 °C in the dry bath, and using the device for support well-plates. Each compound to be assayed and the reference antioxidant compounds were prepared and measured by triplicate. The absorbance values were measured at 594 nm after 5 min of reaction and, to assure complete reaction, the absorbance values after 60 min of incubation at 37 °C in the dry bath were also measured. The absorbance values of the sample antioxidant compounds were corrected by subtracting the corresponding absorbance values of the blanks, and then they were introduced in the calibration curve and the ferrous equivalents were determined. The reference antioxidants employed for this assay were trolox and ferulic acid, which were obtained from Sigma-Aldrich (Madrid, Spain). Ultrapure water was obtained from a Milli-Q Direct 8 system (Millipore, Molsheim, France).
# In order to achieve a broader insight into the antioxidant profile of our compounds, we also examined them using a single electron transfer (SET)-based method, namely the ferric reducing antioxidant power (FRAP) assay, which measures the ability of an antioxidant to reduce the ferric ion in the TPTZ (2,4,6-tri(2-pyridyl)-1,3,5-triazine)-Fe(III) complex.
# SH-SY5Y cells [3] = assay: Neuroprotection against rotenone/oligomycin A in SH-SY5Y cells (MTT); type: cell-based; conditions: Homo sapiens, 24 h, 1 µM compound, rotenone 30 µM + oligomycin A 10 µM, read-out: % Neuroprotection ± SEM at 1 µM (rotenone/oligomycin A)
# Experimental: To evaluate the compounds for their neuroprotective effect in an oxidative stress model, we selected the rotenone (30 μM) and oligomycin A (10 μM) (R/O) cocktail, which disturbs the flow of electrons in the mitochondrial respiratory chain. Similarly, SH-SY5Y cells were preincubated with compounds 3 at 1 μM for 24 h. Then, they were co-incubated in the presence of R/O for a further 24 h, evaluating cell viability by the MTT reduction method.
# Thus, the R/O combination constitutes a good model of oxidative stress and neurodegeneration with a mitochondrial origin, and has been broadly employed to evaluate potential hit compounds for the treatment of neurodegenerative diseases. Furthermore, treatment of laboratory animals with rotenone is known to induce many features associated to Parkinson’s disease, such as selective nigrostriatal dopaminergic degeneration and the appearance of α-synuclein cytoplasmic inclusions, which are associated with oxidative damage.
# SH-SY5Y cells [4] = assay: Neuroprotection against okadaic acid in SH-SY5Y cells (MTT); type: cell-based; conditions: Homo sapiens, SH-SY5Y, 18 h; 1 µM compound; okadaic acid 20 nM; read-out: % Neuroprotection ± SEM at 1 µM (okadaic acid)
# Experimental: Neuroprotection studies against tau hyperphosphorylation exerted by okadaic acid (OA) were evaluated using the SH-SY5Y cell line as follows. […] After 18 h, cell viability was addressed by the MTT reduction method. MTT (5 mg/mL, 10 μL/well) was added and incubated for 2 h. Then, the medium was removed and the purple formazan crystals formed by viable cells were dissolved using 100 μL of DMSO. A FluoStar Optima spectrophotometer (BMG Labtech, Ortenberg, Baden-Württemberg, Germany) was used to measure the absorbance at 570 nm.
# Okadaic acid is a potent inhibitor of protein phosphatase 2A (PP2A), thereby inducing tau hyperphosphorylation. For this reason, it can be employed as a model of neurodegenerative-disease-connected tau hyperphosphorylation, a well-known feature of Alzheimer’s disease, but present also in other NDDs, collectively known as tauopathies and characterized by the pathological aggregation of hyperphosphorylated tau in neurofibrillary tangles. […] Tau hyperphosphorylation is connected to oxidative stress, which activates p38 and deactivates calcineurin, a phosphatase involved in tau dephosphorylation by increasing RCAN1, its natural repressor [34, 35]. Indeed, hyperphosphorylation and oxidative stress have been proposed to generate a vicious circle that is critical to the advance of neurodegenerative tauopathies.
Compound,IC50 [1] [µM],FRAP nmol Fe2+ at 30 µM [2],FRAP TEAC [2],% neuroprotection against rotenone/oligomycin A toxicity at 1 µM (SH-SY5Y cells [3]) [%],% neuroprotection against okadaic acid at 1 µM (SH-SY5Y cells [4]) [%]
"O=C1O[C@H]([C@@H](O)CO)C(O)=C1O [Ascorbic acid, reference compound]",16.2 ± 0.7,–,–,–,–
"COc1cc(/C=C/C(=O)O)ccc1O [Ferulic acid, reference compound]",–,1.98 ± 0.04 (3) nmol Fe^2+,0.87,–,–
"COc1ccc2[nH]cc(CCNC(C)=O)c2c1 [Melatonin, reference compound]",–,–,–,61.4 ± 8.75,67.7 ± 13.9
"Cc1c(C)c2c(c(C)c1O)CCC(C)(C(=O)O)O2 (centres unmarked) [Trolox, reference compound]",11.4 ± 1,2.28 ± 0.15 (9) nmol Fe^2+,1.00,–,–
